According to PubChem BioAssay AID1259407 (Chemical Carcinogenesis Research Information System (CCRIS), 2018):
Activity calls are given as the source filed them. How the calls were made is not given here.

System: CCRIS mutagenicity, Ames/micronucleus/aberration tests
Assay: CCRIS mutagenicity studies
Details: Test System: AMES SALMONELLA TYPHIMURIUM

Row | SMILES | mutagenic call (Strain/Indicator: TA97A, Metabolic Activation: NONE, Method: STANDARD PLATE) | mutagenic call (Strain/Indicator: TA97A, Metabolic Activation: RAT LIVER S-9, PHENOBARBITAL, Method: STANDARD PLATE) | mutagenic call (Strain/Indicator: TA98, Metabolic Activation: GUINEA PIG, LIVER, S-9, PCB, Method: PREINCUBATION) | mutagenic call (Strain/Indicator: TA98, Metabolic Activation: HAMSTER, LIVER, S-9, PCB, Method: PREINCUBATION) | mutagenic call (Strain/Indicator: TA98, Metabolic Activation: MOUSE, LIVER, S-9, PCB, Method: PREINCUBATION) | mutagenic call (Strain/Indicator: TA98, Metabolic Activation: NONE, Method: STANDARD PLATE) | mutagenic call (Strain/Indicator: TA98, Metabolic Activation: RAT LIVER S-9, PHENOBARBITAL, Method: STANDARD PLATE) | mutagenic call (Strain/Indicator: TA98, Metabolic Activation: RAT, LIVER, S-9, PCB, Method: PREINCUBATION) | mutagenic call (Strain/Indicator: TA100, Metabolic Activation: GUINEA PIG, LIVER, S-9, PCB, Method: PREINCUBATION) | mutagenic call (Strain/Indicator: TA100, Metabolic Activation: HAMSTER, LIVER, S-9, PCB, Method: PREINCUBATION) | mutagenic call (Strain/Indicator: TA100, Metabolic Activation: MOUSE, LIVER, S-9, PCB, Method: PREINCUBATION) | mutagenic call (Strain/Indicator: TA100, Metabolic Activation: NONE, Method: STANDARD PLATE) | mutagenic call (Strain/Indicator: TA100, Metabolic Activation: RAT LIVER S-9, PHENOBARBITAL, Method: STANDARD PLATE) | mutagenic call (Strain/Indicator: TA100, Metabolic Activation: RAT, LIVER, S-9, AROCLOR 1254, Method: PREINCUBATION) | mutagenic call (Strain/Indicator: TA100, Metabolic Activation: RAT, LIVER, S-9, PCB, Method: PREINCUBATION) | mutagenic call (Strain/Indicator: TA102, Metabolic Activation: NONE, Method: STANDARD PLATE) | mutagenic call (Strain/Indicator: TA102, Metabolic Activation: RAT LIVER S-9, PHENOBARBITAL, Method: STANDARD PLATE) | mutagenic call (Strain/Indicator: TA98, Metabolic Activation: RAT, LIVER, MICROSOMES, PHENOBARBITAL, Method: STANDARD PLATE) | mutagenic call (Strain/Indicator: TA100, Metabolic Activation: RAT, LIVER, MICROSOMES, PHENOBARBITAL, Method: STANDARD PLATE)
1 | Cc1c(N(C)CS(=O)(=O)O)c(=O)n(-c2ccccc2)n1C | inactive; negative | active; positive | inactive; negative | inactive; negative | inactive; negative | inactive; negative | active; positive | inactive; negative | inactive; negative | inactive; negative | inactive; negative | inactive; negative | inactive; negative | active; positive | active; positive | inactive; negative | inactive; negative |  | 
2 | O=C1C=CCO1 |  |  |  |  |  |  |  |  |  |  |  |  |  |  |  |  |  | inactive; negative | inactive; negative
